Assay results reported in patent US8163737B2 (Vertex Pharmaceuticals Incorporated, priority 2006, dated 2012).
Ends that are not written are not given here.

What was measured:
[1] = test system: facial blood flow; settings: marmoset, electrical stimulation of the trigeminal ganglion; cited from earlier work
[2] = test system: acute attacks of migraine; settings: clinical trials; cited from earlier work
[3] = test system: facial blood flow; settings: rat, trigeminal ganglion stimulation; cited from earlier work
[4] = test system: middle meningeal artery; settings: rats, electrical stimulation of the dura mater, prior administration; cited from earlier work
[5] = target: endogenous CGRP receptor (Homo sapiens, UniProt O60894+Q16602); assay: CGRP functional antagonism using SK-N-MC-BLA (4C10), β-lactamase transcriptional reporter assay; format: cell-based; settings: SK-N-MC (4C10) cells, inhibition of β-lactamase expression in the presence of 200 pM CGRP
Sequence of endogenous CGRP receptor (Q16602 23-461): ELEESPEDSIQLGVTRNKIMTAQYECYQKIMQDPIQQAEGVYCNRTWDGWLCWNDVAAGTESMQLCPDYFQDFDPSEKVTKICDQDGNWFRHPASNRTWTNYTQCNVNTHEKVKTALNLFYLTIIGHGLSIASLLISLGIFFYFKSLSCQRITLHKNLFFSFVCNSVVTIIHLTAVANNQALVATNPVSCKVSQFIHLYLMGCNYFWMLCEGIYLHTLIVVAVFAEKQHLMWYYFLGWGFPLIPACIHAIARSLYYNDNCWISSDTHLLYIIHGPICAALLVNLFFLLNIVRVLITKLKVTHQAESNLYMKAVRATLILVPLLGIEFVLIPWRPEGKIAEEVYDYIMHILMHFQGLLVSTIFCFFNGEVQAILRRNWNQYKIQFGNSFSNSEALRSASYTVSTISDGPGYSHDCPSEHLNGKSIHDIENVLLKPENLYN
Sequence of endogenous CGRP receptor (O60894 27-148): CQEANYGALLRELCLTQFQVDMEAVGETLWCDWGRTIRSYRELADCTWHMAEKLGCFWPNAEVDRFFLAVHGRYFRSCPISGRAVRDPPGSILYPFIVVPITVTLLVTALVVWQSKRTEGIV

[6] = target: T1, CGRP receptor (SK-N-MC membrane) (Homo sapiens, UniProt O60894+Q16602); assay: I125-CGRP binding displacement assay on purified SK-N-MC membrane
T1 construct: Purified SK-N-MC membrane was purchased from Perkin Elmer; purchased Perkin Elmer; host or cells: SK-N-MC membrane
T1 sequence (Q16602 23-461): as the sequence (Q16602 23-461) above
T1 sequence (O60894 27-148): as the sequence (O60894 27-148) above
Summary of the method: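 Displacement of I125-CGRP binding was measured by filtration and scintillation counting after 2 h room-temperature incubation with compound and SK-N-MC membranes (buffer pH 7.4, MgCl2, BSA, Tween). Percent displacement calculated against total binding and 1 uM cold CGRP nonspecific controls, then curve-fitted.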

Molecule	IC50 [5] [nM]	Ki [6] [nM]	other results
NCCCC[C@H](NC(=O)[C@@H](Cc1cc(Br)c(O)c(Br)c1)NC(=O)N1CCC(N2Cc3ccccc3NC2=O)CC1)C(=O)N1CCN(c2ccncc2)CC1 [BIBN4096BS]	–	–	effect on increase in facial blood flow [1]: blocked; efficacy in acute attacks of migraine [2]: effective in treating acute attacks of migraine
CGRP (8-37): a peptide CGRP antagonist (VTHRLAGLLSRSGGVVKNNFVPTNVGSKAF; ends and bridges not checked; UniProt P06881 90-119, looked up, fragment)	–	–	effect on increased facial blood flow [3]: inhibited; effect on increase of middle meningeal artery diameter [4]: blocked
O=C(CC1SC(Cc2ccccc2)N(CC(F)(F)F)C1=O)N1CCC(N2Cc3ccccc3NC2=O)CC1 (stereo not shown) [Compound 190]	> 5000	1000 to 5000	–
CC(C)CCN1C(=O)C(CC(=O)N2CCC(N3Cc4ccccc4NC3=O)CC2)SC1c1cccc(OC(F)(F)F)c1 (stereo not shown) [Compound 169]	1000 to 5000	< 1000	–
CC(C)CCN1C(=O)C(CC(=O)N2CCC(N3Cc4ccccc4NC3=O)CC2)SC1c1ccccc1F (stereo not shown) [Compound 170]	< 1000	< 1000	–
CC(C)(C)N1C(=O)C(CC(=O)N2CCC(N3Cc4ccccc4NC3=O)CC2)SC1c1ccccc1 (stereo not shown) [Compound 251]	> 5000	1000 to 5000	–
CC(C)(C)CCN1C(=O)C(CC(=O)N2CCC(N3Cc4ccccc4NC3=O)CC2)SC1c1ccccc1N1CCOCC1 (stereo not shown) [Compound 160]	< 1000	< 1000	–
CC(C)CCN1C(=O)C(CC(=O)N2CCC(N3CCc4ccccc4NC3=O)CC2)SC1C1CCCCC1 (stereo not shown) [Compound 37]	< 1000	< 1000	–
CC(C)CCN1C(=O)C(CC(=O)N2CCC(N3Cc4ccccc4NC3=O)CC2)SC1c1ccccc1 (stereo not shown) [Compound 12]	< 1000	< 1000	–

Second part, led by results:

IC50 [5] [nM]	Ki [6] [nM]	Molecule	other results
< 1000	< 1000	CC(C)(C)N1CCN(c2c(F)cccc2C2S[C@@H](CC(=O)N3CCC(n4c(=O)[nH]c5ncccc54)CC3)C(=O)N2CCc2ccccc2)CC1 (stereo partly shown) [Compound 509]	–
< 1000	< 1000	COCCN1C(=O)[C@H](CC(=O)N2CCC(N3CCc4ccccc4NC3=O)CC2)SC1c1cccc(F)c1N1CCN(C(C)(C)C)CC1 (stereo partly shown) [Compound 534]	–
< 1000	< 1000	CC(C)(C)N1CCN(c2c(F)cccc2[C@H]2S[C@@H](CC(=O)N3CCC(N4CCc5ccccc5NC4=O)CC3)C(=O)N2CCc2ccccc2)CC1 [Compound 507]	–
< 1000	< 1000	CC(C)(C)CCN1C(=O)[C@H](CC(=O)N2CCC(n3c(=O)[nH]c4ncccc43)CC2)S[C@H]1c1cccc(F)c1N1CCN(C(C)(C)C)CC1 [Compound 436]	–
< 1000	< 1000	CC(C)(C)CCN1C(=O)[C@H](CC(=O)N2CCC(N3CCc4ccccc4NC3=O)CC2)S[C@H]1c1ccccc1C1CCNCC1 [Compound 502, 4,5-Dihydro-3-(1-(2-((2S,5S)-3-(3,3-dimethylbutyl)-4-oxo-2-(2-(piperidin-4-yl)phenyl)thiazolidin-5-yl)acetyl)piperidin-4-yl)-1H-benzo[d][1,3]diazepin-2(3H)-one]	–
< 1000	< 1000	CC(C)(C)N1CCN(c2c(F)cccc2C2S[C@@H](CC(=O)N3CCC(n4c(=O)[nH]c5ncccc54)CC3)C(=O)N2Cc2ccccc2)CC1 (stereo partly shown) [Compound 540]	–
< 1000	< 1000	CC(C)(C)CCN1C(=O)[C@H](CC(=O)N2CCC(N3Cc4ccccc4NC3=O)CC2)S[C@H]1c1cccc(F)c1N1CCC(O)C1 (stereo partly shown) [Compound 469]	–
< 1000	< 1000	CC(C)CN1C(=O)[C@H](CC(=O)N2CCC(N3CCc4ccccc4NC3=O)CC2)SC1c1cccc(F)c1N1CCN(C(C)(C)C)CC1 (stereo partly shown) [Compound 493]	–
